# Measured values reported in ChEMBL document CHEMBL5465560, “Selectivity Literature for EUbOPEN Chemogenomic Library” (2024).
# Assays:
# [1] = target: Ribosomal protein S6 kinase alpha-5 (Homo sapiens) (UniProt O75582); conditions: at 10 µM
# [2] = target: T1, Serine/threonine-protein kinase VRK1 (Homo sapiens) (UniProt Q99986); assay: Selectivity interaction (Kinase panel (DSF assay)) EUB0001558a VRK1
# T1 sequence (whole entry): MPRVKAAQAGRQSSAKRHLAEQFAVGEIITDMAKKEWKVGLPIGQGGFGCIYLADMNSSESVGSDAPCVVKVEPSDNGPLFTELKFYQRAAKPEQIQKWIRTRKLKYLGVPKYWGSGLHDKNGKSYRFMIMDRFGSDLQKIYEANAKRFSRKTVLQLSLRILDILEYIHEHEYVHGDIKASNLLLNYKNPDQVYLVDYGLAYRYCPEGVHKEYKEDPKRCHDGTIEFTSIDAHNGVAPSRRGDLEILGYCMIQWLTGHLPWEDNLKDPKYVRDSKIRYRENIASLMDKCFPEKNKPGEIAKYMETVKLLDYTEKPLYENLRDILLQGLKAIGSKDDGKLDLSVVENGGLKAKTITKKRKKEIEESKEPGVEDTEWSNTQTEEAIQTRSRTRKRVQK
# [3] = target: Serine/threonine-protein kinase SIK1 (Homo sapiens) (UniProt P57059); assay: Selectivity interaction (KinomeScan (DiscoverX)) EUB0000229b SIK1; conditions: at 10 µM
# Chain of Serine/threonine-protein kinase SIK1 (Homo sapiens) (P57059 whole entry): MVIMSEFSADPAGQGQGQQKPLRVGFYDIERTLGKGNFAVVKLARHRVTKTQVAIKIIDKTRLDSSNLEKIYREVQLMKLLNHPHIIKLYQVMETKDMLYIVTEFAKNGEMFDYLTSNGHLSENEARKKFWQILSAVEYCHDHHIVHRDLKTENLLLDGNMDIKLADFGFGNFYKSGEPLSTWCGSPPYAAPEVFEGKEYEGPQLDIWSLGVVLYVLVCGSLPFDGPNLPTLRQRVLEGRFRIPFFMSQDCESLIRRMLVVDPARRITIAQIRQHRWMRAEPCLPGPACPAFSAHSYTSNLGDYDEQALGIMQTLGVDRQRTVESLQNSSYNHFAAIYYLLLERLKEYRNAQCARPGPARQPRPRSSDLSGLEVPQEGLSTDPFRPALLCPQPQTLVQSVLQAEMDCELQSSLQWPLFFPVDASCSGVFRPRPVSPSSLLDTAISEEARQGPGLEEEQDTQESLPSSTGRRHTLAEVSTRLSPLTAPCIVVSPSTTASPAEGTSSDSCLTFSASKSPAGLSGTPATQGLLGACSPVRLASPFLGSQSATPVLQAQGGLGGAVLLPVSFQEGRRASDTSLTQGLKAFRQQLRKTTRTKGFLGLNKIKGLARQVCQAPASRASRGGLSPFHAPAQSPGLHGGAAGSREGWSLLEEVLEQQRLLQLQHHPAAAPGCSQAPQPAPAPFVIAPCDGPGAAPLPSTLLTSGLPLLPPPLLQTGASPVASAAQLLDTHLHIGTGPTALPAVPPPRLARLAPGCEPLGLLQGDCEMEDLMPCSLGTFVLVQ
# [4] = target: Serine/threonine-protein kinase PAK 6 (Homo sapiens) (UniProt Q9NQU5); assay: Selectivity interaction (Upstate Kinase Profiler service (Millipore)) EUB0000056c PAK6; conditions: at 1 µM
# [5] = target: Fibroblast growth factor receptor 4 (Homo sapiens, UniProt P22455); assay: Selectivity interaction (KinomeScan (DiscoverX)) EUB0001079a FGFR4; conditions: at 1 µM
# Chain of Fibroblast growth factor receptor 4 (P22455 22-802 limits assumed): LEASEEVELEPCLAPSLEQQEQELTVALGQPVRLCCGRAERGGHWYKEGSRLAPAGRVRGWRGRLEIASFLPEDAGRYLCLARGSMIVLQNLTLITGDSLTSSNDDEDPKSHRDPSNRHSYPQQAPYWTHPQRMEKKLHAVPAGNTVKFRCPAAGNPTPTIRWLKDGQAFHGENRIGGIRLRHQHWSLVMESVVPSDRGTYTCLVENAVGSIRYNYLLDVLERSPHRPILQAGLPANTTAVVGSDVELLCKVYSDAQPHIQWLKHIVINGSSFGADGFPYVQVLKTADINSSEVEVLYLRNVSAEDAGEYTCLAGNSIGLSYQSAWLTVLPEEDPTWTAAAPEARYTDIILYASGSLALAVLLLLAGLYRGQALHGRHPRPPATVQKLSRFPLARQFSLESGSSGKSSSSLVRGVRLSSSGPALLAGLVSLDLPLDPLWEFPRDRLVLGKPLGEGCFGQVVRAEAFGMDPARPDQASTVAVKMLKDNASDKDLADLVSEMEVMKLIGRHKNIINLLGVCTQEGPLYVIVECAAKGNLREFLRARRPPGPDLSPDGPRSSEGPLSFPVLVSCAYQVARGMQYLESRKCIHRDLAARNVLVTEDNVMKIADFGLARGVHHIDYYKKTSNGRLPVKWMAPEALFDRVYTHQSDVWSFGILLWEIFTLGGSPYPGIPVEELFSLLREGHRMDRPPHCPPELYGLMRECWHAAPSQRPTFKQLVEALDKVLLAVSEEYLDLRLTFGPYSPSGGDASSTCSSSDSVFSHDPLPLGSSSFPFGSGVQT
# [6] = target: T2, Calcium/calmodulin-dependent protein kinase type IV (Homo sapiens) (UniProt Q16566); assay: Selectivity interaction (Millipore kinase profiler) EUB0000124b CAMK4; conditions: at 10 µM
# T2 sequence (whole entry): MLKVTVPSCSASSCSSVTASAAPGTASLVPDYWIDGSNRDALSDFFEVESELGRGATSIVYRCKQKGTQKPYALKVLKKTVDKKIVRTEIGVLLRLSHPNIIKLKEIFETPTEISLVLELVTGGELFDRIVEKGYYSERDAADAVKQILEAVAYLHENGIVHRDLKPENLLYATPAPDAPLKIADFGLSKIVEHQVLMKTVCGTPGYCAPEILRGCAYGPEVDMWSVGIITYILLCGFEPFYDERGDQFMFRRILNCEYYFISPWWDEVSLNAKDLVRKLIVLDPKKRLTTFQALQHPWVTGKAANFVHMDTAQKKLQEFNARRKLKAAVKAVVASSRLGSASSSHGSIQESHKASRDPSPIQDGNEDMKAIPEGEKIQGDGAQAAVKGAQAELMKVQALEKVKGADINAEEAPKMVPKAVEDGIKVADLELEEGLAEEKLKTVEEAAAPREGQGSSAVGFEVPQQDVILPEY
# [7] = target: Casein kinase II subunit alpha' (Homo sapiens) (UniProt P19784); assay: Selectivity interaction (Kinase panel (Z-LYTE Assay)) EUB0001632a CSNK2A2; conditions: at 10 µM
# Chain of Casein kinase II subunit alpha' (Homo sapiens) (P19784 whole entry, looked up): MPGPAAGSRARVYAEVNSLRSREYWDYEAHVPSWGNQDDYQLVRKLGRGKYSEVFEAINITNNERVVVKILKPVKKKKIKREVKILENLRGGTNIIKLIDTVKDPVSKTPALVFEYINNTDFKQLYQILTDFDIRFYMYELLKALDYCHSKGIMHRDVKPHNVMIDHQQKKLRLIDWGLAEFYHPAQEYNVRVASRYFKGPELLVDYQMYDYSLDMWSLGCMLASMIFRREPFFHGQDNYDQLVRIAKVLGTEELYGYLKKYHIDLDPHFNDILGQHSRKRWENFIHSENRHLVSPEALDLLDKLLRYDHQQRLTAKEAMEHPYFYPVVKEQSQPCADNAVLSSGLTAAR
# [8] = target: Rho-associated protein kinase 2 (Homo sapiens, UniProt O75116); assay: Selectivity interaction (ActivX KiNativ screen (kinase selectivity in THP-1 cell lysates)) EUB0000639a ROCK2; type: subcellular; conditions: lysate
# Chain of Rho-associated protein kinase 2 (O75116 whole entry, looked up): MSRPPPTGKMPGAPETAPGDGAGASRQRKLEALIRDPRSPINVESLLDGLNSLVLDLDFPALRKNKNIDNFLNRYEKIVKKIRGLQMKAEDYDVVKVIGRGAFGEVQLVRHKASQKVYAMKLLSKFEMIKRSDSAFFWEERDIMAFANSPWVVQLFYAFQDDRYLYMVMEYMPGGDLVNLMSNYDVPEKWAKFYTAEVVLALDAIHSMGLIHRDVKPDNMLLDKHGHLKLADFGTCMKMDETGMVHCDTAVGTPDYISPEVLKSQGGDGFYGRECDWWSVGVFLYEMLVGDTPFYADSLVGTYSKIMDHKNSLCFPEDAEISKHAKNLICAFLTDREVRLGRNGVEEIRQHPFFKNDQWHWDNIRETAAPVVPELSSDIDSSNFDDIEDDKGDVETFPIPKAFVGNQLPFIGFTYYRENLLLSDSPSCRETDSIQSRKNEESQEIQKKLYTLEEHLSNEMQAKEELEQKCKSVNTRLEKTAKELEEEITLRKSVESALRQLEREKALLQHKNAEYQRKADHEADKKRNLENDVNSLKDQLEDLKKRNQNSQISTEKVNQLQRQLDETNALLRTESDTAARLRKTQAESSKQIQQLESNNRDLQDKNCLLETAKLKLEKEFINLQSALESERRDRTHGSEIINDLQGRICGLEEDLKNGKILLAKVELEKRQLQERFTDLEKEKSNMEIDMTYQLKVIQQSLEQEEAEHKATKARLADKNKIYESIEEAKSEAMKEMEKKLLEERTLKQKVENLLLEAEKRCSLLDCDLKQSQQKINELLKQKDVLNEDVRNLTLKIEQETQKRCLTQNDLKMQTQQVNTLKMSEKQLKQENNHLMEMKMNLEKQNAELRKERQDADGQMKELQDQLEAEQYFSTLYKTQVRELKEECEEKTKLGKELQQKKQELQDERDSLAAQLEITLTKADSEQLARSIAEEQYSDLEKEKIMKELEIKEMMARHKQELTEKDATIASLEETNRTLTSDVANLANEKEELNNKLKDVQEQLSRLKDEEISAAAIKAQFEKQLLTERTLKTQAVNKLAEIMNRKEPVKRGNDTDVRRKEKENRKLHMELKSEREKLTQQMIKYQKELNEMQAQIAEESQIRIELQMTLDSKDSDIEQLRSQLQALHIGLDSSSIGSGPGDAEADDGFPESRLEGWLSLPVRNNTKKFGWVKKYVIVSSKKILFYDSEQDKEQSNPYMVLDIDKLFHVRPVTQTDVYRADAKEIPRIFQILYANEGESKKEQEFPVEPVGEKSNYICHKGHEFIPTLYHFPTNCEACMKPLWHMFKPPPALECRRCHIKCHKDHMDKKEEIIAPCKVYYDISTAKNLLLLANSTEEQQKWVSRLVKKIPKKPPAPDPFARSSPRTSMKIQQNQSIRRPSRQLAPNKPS
# [9] = target: Tyrosine-protein kinase Fgr (Homo sapiens) (UniProt P09769); assay: Selectivity interaction (SelectScreen profiling (Invitrogen)) EUB0000607a FGR; conditions: at 2 µM
# [10] = target: T3, Mitogen-activated protein kinase kinase kinase 19 (Homo sapiens) (UniProt Q56UN5); assay: Selectivity interaction (KinomeScan (DiscoverX)) EUB0000045b MAP3K19
# T3 sequence (whole entry): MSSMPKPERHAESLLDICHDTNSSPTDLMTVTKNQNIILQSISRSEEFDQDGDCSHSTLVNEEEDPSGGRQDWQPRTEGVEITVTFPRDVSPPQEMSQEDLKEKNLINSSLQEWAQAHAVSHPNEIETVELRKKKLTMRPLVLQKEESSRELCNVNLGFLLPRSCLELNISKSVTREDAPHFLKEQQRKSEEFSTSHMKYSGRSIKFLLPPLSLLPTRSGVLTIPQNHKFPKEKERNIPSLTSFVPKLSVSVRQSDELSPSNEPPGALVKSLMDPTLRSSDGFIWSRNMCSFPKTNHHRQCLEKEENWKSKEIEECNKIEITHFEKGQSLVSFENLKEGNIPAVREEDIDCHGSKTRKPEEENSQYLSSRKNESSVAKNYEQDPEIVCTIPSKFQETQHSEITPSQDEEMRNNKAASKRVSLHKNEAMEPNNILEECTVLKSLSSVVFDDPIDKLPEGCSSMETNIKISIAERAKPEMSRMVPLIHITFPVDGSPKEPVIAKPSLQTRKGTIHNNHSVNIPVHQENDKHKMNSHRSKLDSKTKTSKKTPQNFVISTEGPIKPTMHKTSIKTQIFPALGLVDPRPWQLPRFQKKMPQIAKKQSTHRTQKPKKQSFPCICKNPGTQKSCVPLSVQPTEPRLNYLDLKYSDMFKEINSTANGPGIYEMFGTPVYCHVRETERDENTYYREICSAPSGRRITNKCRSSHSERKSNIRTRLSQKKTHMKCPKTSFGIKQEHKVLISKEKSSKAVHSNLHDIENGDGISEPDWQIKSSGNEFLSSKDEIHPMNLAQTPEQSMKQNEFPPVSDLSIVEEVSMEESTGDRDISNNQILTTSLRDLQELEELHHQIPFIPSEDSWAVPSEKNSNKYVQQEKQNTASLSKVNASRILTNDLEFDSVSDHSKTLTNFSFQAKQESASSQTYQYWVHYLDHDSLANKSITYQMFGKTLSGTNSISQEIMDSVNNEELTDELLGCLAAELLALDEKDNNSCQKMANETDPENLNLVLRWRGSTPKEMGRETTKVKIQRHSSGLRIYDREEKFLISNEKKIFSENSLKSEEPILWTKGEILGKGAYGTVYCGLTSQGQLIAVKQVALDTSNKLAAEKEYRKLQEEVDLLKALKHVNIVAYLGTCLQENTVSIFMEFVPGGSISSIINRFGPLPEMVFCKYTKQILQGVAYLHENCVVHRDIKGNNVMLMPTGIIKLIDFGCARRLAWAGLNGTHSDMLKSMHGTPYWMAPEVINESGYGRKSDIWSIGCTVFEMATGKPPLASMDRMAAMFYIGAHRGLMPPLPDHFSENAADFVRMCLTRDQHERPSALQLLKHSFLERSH
# [11] = target: 5-hydroxytryptamine receptor 2B (Homo sapiens, UniProt P41595); assay: Selectivity interaction (Eurofins safety panel) EUB0001564a HTR2B; conditions: at 10 µM
# Chain of 5-hydroxytryptamine receptor 2B (P41595 whole entry): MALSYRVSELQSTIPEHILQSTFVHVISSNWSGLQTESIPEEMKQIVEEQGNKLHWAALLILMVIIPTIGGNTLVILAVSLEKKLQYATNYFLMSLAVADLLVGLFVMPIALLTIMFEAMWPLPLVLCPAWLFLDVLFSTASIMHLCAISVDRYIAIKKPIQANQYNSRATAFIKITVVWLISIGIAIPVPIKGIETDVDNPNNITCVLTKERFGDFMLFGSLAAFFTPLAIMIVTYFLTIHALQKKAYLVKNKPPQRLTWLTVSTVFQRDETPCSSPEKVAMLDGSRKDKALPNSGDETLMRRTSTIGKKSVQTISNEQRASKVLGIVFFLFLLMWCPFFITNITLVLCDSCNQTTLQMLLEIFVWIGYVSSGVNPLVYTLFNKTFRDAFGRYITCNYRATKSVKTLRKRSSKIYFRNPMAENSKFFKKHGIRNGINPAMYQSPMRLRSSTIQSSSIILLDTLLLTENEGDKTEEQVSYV
# Chain of Ribosomal protein S6 kinase alpha-5 (Homo sapiens) (O75582 whole entry, looked up): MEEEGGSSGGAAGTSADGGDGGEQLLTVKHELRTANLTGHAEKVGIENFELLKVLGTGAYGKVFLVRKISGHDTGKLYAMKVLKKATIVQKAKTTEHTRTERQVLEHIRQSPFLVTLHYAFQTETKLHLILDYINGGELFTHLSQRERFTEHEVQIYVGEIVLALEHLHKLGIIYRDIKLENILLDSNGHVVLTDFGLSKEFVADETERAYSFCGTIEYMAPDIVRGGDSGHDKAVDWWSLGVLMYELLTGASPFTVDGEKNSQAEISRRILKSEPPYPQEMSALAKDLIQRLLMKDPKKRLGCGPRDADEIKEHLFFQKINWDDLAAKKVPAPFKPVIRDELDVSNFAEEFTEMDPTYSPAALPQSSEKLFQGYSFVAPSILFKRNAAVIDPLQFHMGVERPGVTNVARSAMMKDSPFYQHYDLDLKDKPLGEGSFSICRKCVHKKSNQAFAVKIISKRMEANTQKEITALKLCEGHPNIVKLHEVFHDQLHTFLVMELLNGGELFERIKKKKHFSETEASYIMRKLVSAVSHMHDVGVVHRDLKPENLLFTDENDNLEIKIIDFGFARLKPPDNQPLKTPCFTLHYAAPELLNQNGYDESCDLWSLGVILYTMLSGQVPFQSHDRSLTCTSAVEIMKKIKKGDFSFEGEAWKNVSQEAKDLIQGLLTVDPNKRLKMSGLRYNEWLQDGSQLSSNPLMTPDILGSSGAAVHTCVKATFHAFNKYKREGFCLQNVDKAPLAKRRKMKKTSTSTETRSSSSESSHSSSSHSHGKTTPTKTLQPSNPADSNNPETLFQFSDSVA
smiles,measurement,setting,value
CCN(CC)CCCCNc1ncc2cc(-c3cc(OC)cc(OC)c3)c(NC(=O)NC(C)(C)C)nc2n1,% of control,[1],100%
CC(C)(O)[C@H](F)CN1Cc2cc(NC(=O)c3cnn4cccnc34)c(N3CCOCC3)cc2C1=O,dTM,[2],-0.3 K
COc1cc(N(C)c2ccnc3ccc(C(F)(F)F)cc23)cc(OC)c1OC,% binding,[3],96%
Cc1ccc(-c2ccc3c(ccc4sc5c(c43)NC[C@@H](C)NC5=O)n2)cn1,% of inhibition,[4],9%
Nc1cnc(N2CCc3cc(S(=O)(=O)Nc4c(F)cc(Cl)cc4F)cc(N4CCCC4=O)c32)nc1 [TP-020n],% of control,[5],100%
CC(=O)Nc1cccc(-n2c(=O)n(C3CC3)c(=O)c3c(Nc4ccc(I)cc4F)n(C)c(=O)c(C)c32)c1,% of control,[6],97%
Cn1cc(-n2cnc3c(NCc4nc5cc(Cl)c(Cl)cc5[nH]4)nc(N4CCOCC4)nc32)cn1,% of control,[7],1.8%
CC[C@@H]1[C@H](F)C(=O)N[C@@H]1COc1nccc2cc(C(N)=O)c(OC)cc12 [ZIMLOVISERTIB],% of inhibition,[8]; at 0.01 µM,12.6%
same,% of inhibition,[8]; at 0.04 µM,-4.3%
same,% of inhibition,[8]; at 0.2 µM,-10.6%
same,% of inhibition,[8]; at 1 µM,18.3%
same,% of inhibition,[8]; at 5 µM,53.9%
CNC(=O)Nc1ccc(-c2nc(N3CC4CCC(C3)O4)c3cnn(C4CCC5(CC4)OCCO5)c3n2)cc1,% of inhibition,[9],1%
C=CC(=O)Nc1cc(-n2c(=O)ccc3cnc4ccc(-c5ccc(NS(C)(=O)=O)cc5)cc4c32)ccc1C,% of control,[10]; at 1 µM,100%
same,% of control,[10]; at 10 µM,65%
CC[C@@H](Nc1c(C#N)c(-c2ccc(-c3cccc(C)c3F)cc2)nc2cnccc12)C(=O)O [BAY-091],% of inhibition,[11],98%
